The subject of data set [1] is Mexican avocados. In words: Respiration rate (CO2 release) of Mexican avocados. In kind it is in vivo, avocado. The note with it: for cumulative respiration factor (RF): Example 3. The text has this: (§1) As used herein, the “respiration rate” of a product such as produce (e.g., a produce unit) refers to the rate at which the product releases CO2, and more specifically is the volume of CO2 (at standard temperature and pressure) released per unit time per unit mass of the product. In some embodiments, the respiration rate of a product can be measured by placing the product in a closed container of known volume that is equipped with a CO2 sensor, recording the CO2 concentration within the container as a function of time, and then calculating the rate of CO2 release required to obtain the measured concentration values. In some cases, the respiration rate of multiple produce units in a volume (e.g., a sealed or semi-sealed volume) is measured in a single measurement (e.g., as an average). It is understood that respiration rate may be determined by indirect methods, including, but not limited to, hyperspectral imaging, NIR, and other imaging or characterization processes.
As used herein, the term “respiration factor” is defined as the ratio of the cumulative respiration of uncoated produce (measured for a control group) to the cumulative respiration of the corresponding coated produce.
(§2) Four groups of 180 (i.e., 3 sets of 60) Mexican avocados were analyzed over four days. One group received no 1-MCP, and the other group was exposed for eight hours to 1-MCP using 2, 4, or 6 packets of 1-MCP (immobilized in cyclodextrin at 0.014%) per set. Each packet was wetted with water, and then placed in a sealed 30 L container along with 1 set of 60 avocados. The avocados were left in the sealed container for 8 hr. After 8 hours, the avocados were removed and the respiration rate was measured over the course of 4 days. Additionally, the firmness of the avocados (represented as durometer stage) was measured using a durometer.
(§3) Three groups of 60 Mexican avocados were analyzed over three days at ambient temperature. One group received no treatment. One group of avocados at stage 1 (i.e., after day 0) was exposed to 1-MCP for approximately 8 hours. One group of avocados at stage 3 (i.e., after day 2) was exposed to 1-MCP for approximately 8 hours. The respiration rate of the avocados was measured over the course of 3 days.
(§4) Three groups of 120 Mexican avocados were analyzed over about 5 days. One group received no treatment. One group was exposed to 1-MCP for 8 hours immediately after removal from cold storage at 4.5° C. (“cold 1-MCP”). One group was exposed to 1-MCP for 8 hours after the avocados spent 2 hours at ambient temperature (“semi-cold 1-MCP”). One group was exposed to 1-MCP for 8 hours after the avocados spent 6 hours at ambient temperature (“ambient 1-MCP”). The respiration rate of the avocados was measured over the course of 5 days. The firmness of the avocados was measured using a durometer.
Four groups of Mexican avocados were analyzed in order to investigate the minimum respiration peak that Mexican avocadoes should reach in order to ripen without quality issues. One group received no treatment. One group was treated with 1 layer of physical treatment (by bowl dipping and ambient drying; physical treatment A at 30 g/L with 3 g/L glycerol monocaprate). […] The respiration rate of the avocados was measured daily for three weeks. […]
To determine the difference in performance for treating avocados on a brush bed at varying concentrations before or after they have been put in ripening rooms, four flats of Mexican avocados were analyzed. […]

Data set [2] has as its system Mexican avocados. The data set can be described thus: Firmness / durometer stage of Mexican avocados. In kind it is in vivo, avocado. The procedure: In some embodiments, a stage of a produce unit (e.g., an avocado) is based on firmness, and can be measured in shores (e.g., using a durometer) and/or pounds of pressure (e.g., using a penetrometer), then correlated to a stage. In some embodiments, a stage of a produce unit can be based on other parameters, such as respiration rate and/or color).
as §2, §3, §4
(§5) To determine the difference in performance for treating avocados on a brush bed at varying concentrations before or after they have been put in ripening rooms, four flats of Mexican avocados were analyzed. One flat received no treatment. The other three flats were treated with physical treatment A at 12, 22, and 32 g/L, respectively, applied using brush bed system and subsequently dried at 50° C. Avocados treated with physical treatment A were also triggered with ethylene, either before or after treatment with physical treatment A. The respiration rate of the avocados was measured. The firmness of the avocados was measured using a durometer.

Data set [3] has as its system Mexican avocados. In words: Quality defects of ripened Mexican avocados. In kind it is in vivo, avocado. The procedure: as §2, §3, §5
Data set [4] relates to Cucumbers. The data set can be described thus: Mass loss rate of cucumbers. In kind it is in vivo, cucumber. The note with it: 20° C., 5 days. The procedure:
(§6) As used herein, the “mass loss rate” refers to the rate at which the product loses mass (e.g. by releasing water and other volatile compounds). The mass loss rate is typically expressed as a percentage of the original mass per unit time (e.g., percent per day).
(§7) Cucumbers were analyzed in the presence (2 ppm) and absence (0 ppm) of exogenous ethylene at 20° C. for 5 days. Four groups of cucumbers were analyzed. One group received no treatment. One group was treated with a chemical treatment (i.e., 1-MCP). One group was treated with a physical treatment A (40 g/L). One group was treated with both a chemical treatment (i.e., 1-MCP) and physical treatment A (40 g/L). The respiration rate and the mass loss rate of the cucumbers was measured

For data set [5], the system named is Cucumbers. In words: Respiration rate of cucumbers. In kind it is in vivo, cucumber. The note with it: 20° C., 5 days.
From the text: as §1
Cucumbers were analyzed in the presence (2 ppm) and absence (0 ppm) of exogenous ethylene at 20° C. for 5 days. Four groups of cucumbers were analyzed. One group received no treatment. One group was treated with a chemical treatment (i.e., 1-MCP). One group was treated with a physical treatment A (40 g/L). […] The respiration rate and the mass loss rate of the cucumbers was measured

Data set [6] concerns Cucumbers. In words: Aesthetics (yellowing, shrivel) of cucumbers. In kind it is in vivo, cucumber. To be noted: 5 days exposure to exogenous ethylene (2 ppm). On the procedure: as §7
Data set [7] has as its system Persian limes. In words: Mass loss rate of Persian limes. In kind it is in vivo, Persian lime. To be noted: not exposed to ethylene and in the presence of 2 ppm ethylene, 20° C., 5 days. On the procedure: as §6
(§8) Persian limes were analyzed in the presence (2 ppm) and absence (0 ppm) of exogenous ethylene at 20° C. for 5 days. Four groups of limes were analyzed. One group received no treatment. One group was treated with 1-MCP. One group was treated with physical treatment A (40 g/L). One group was treated with both 1-MCP and physical treatment A (40 g/L). The respiration rate of the limes was measured. The mass loss rate of the limes was measured.

For data set [8], the system named is Persian limes. In words: Aesthetics (yellowing) of Persian limes. In kind it is in vivo, Persian lime. The note with it: over a 5 day period; same trends with 2 ppm ethylene. The procedure: as §8
The mark [9] stands for this setting: Example 3, semi-cold and ambient 1-MCP.
Where [10] appears, read: Example 1, once allowed to ripen (about two weeks), 6 packets 1-MCP.

From patent US20220039416A1, “METHODS OF CONTROLLING THE RIPENING OF AGRICULTURAL PRODUCTS” (Apeel Technology, Inc., priority 2020, published 2022) come the findings set out here.

Consider `CC1=CC1` [1-MCP, 1-methylcyclopropene], for which the respiration rate entry in data set [1] (Example 1, exposed 8 hr to 2, 4 or 6 packets 1-MCP (in cyclodextrin at 0.014%) in sealed 30 L container, measured over 4 days) is “high upon removal but quickly decreased and continued to decrease through 4 days post-exposure”; in data set [5] (absence of ethylene), “did not lower the overall respiration rate”; in data set [5] (exposed to ethylene (2 ppm)), “mitigated the corresponding increase in respiration rate”. The CO2 production result in data set [1] (Example 2, 1-MCP exposure at stage 1) was “continuous decrease in CO2 production, back to day 0 levels”. Moreover, the “cumulative respiration factor (RF)” value in data set [1] (cold 1-MCP: exposed 8 hours immediately after removal from 4.5° C. storage) was determined as 1.8 ×; in data set [1] (semi-cold (2 hours at ambient) and ambient (6 hours at ambient) 1-MCP exposure, 8 hours) it was 2.5 ×. The “RF (respiration factor)” value in data set [1] (Example 7, 1-MCP 8 hours, regardless of subsequent ethylene exposure (24 hours at 200 ppm)) is 1.62 ×. The durometer stage in data set [2] (Example 1, 6 packets of 1-MCP, day 4 (untreated stage 5)) worked out at 1.5. Besides, in data set [2] (Example 2, 1-MCP applied at stage 3), the softening rate result is reported as “slight effect”. Besides, the ripening entry was “ripening behavior was still observed” in data set [2] (Example 3, cold 1-MCP) and “did not ripen effectively” in data set [2] (setting [9]). Further, in data set [2] (Example 3, cold 1-MCP, by the time the control group reached stage 5), the “ripening stage relative to control group” value is listed as “over two stages behind the control group”. For the same molecule, in data set [2] (setting [9]), the softening rate reduction entry is reported as “greater softening rate reduction than cold 1-MCP”. For the same molecule, in data set [3] (Example 1), the “checkerboarding (high variability of stage of ripeness)” value is listed as “observed”. In addition, the “feel of the avocados” value in data set [3] (Example 1) was “spongy”. Moreover, the “incidence of flesh adhesion” value in data set [3] (setting [10]) was > 30%. Further, the incidence of mold in data set [3] (setting [10]) is reported as > 25%. Besides, the internal quality entry in data set [3] (Example 2) is recorded as “did not improve internal quality”. Further, the “incidence of mold and vascular browning” value in data set [3] (Example 2, 1-MCP at stage 1 or stage 3, approximately 40 shore) is listed as 15-25%. Besides, the mass loss rate result in data set [4] (absence of ethylene) was “no impact”; in data set [4] (presence of ethylene (2 ppm)) it was “lowered the mass loss rate”; in data set [7] it was “no significant impact”. In addition, the yellowing result in data set [6] was “greater positive impact on the rate of yellowing”. In addition, the yellowing / aesthetics entry in data set [8] was “reduced the yellowing”.
